Source: patent US8779158B2, “Trisubstituted pyrazoles as acetylcholine receptor modulators” (Janssen Pharmaceutica NV, priority 2008, dated 2014)

Legend:
hα7-wt nAChR = target: T1, hα7-wt nAChR (Homo sapiens, UniProt P36544); test: Ca2+ flux imaging (FDSS) (Protocol B), potentiation of the choline response; format: cell-based; settings: Ca2+ assay as described in D.1; for EC50: "<5" = activity did not reach a top plateau at maximal concentration; for Emax: read-out: % Efficacy
T1 construct: expressed in transfected cells
T1 sequence (P36544 23-502): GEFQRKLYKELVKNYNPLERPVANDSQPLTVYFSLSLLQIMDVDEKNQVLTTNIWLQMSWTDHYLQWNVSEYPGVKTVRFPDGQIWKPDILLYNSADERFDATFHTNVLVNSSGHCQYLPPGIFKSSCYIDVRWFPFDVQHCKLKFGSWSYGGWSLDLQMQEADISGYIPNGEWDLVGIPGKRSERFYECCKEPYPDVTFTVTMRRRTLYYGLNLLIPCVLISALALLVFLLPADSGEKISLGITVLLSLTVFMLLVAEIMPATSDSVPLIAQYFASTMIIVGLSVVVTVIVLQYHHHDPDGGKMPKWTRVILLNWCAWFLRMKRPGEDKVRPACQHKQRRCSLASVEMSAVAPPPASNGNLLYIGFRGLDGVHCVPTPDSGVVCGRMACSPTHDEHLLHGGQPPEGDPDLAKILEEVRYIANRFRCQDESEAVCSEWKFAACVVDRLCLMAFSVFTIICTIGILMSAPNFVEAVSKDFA
Description: Ca^2+ Flux Imaging (FDSS) (Protocol B)
• Hanks buffered saline solution (HBSS, Invitrogen, Belgium), supplemented with 10 mM HEPES (Invitrogen, Belgium), CaCl2 to a final concentration of 5 mM, 0.1% Bovine serum albumin (Sigma-Aldrich NV, Belgium). b) Calcium-Sensitive Dye—Fluo-4AM • Fluo-4AM (Molecular Probes, USA) was dissolved in DMSO containing 10% Pluronic acid (Molecular Probes, USA) to give a stock solution which was diluted in assay buffer supplemented with 5 mM probenicid (Sigma, Aldrich NV, Belgium) to give a final concentration of 2 μM. c) 384-Well Plates • Black 384 well plate black/clear plates, PDL pre-coated (Corning, Incorporated, USA) d) Calcium Flux Measurement • A Functional drug screening system (FDSS, Hamamatsu) was used to measure intracellular free-calcium flux signals. Method
Monolayers of hα7-wt nAChR-expressing cells were grown in multi-well plates, in particular black-sided, transparent bottomed 384 well plates coated with poly-D-lysine for 24 hours prior to loading with a fluorescent calcium indicator, in a particular embodiment loading with fluo-4AM for up to 120 minutes.
PAM activity was detected in real time by applying the compounds to be tested to the loaded cells along with a α7 nicotinic receptor agonist during constant monitoring of cellular fluorescence in a FDSS. Compounds giving peak fluorescent responses greater than the response due to agonist alone, were considered to be α7 nAChR PAM's. In a particular embodiment, the α7 nicotinic receptor agonist was choline, a more particular embodiment choline applied at a sub-maximal concentration of 100 μM. In a further setting of the present invention the compounds to be tested were applied prior to the α7 nicotinic receptor agonist, in a particular embodiment up to 10 minutes prior to the agonist.
A control response to choline was calculated on each plate from the difference in peak in fluorescence in wells receiving either choline or assay buffer alone. Compounds of the present invention were tested at a concentration range from 0.01 μM to 30 μM. Compounds were considered to have an interesting activity when they potentiated the choline signal at least with 200% when tested at a concentration of 30 μM (the efficacy of 100 μM choline was defined as 100% in the absence of a PAM). An EC50 (or pEC50) was determined as a concentration relating to half the maximal effect, when a clear sigmoidal curve with top plateau was obtained.

[1] = target: T2, hα7-wt nAChR-expressing GH4C1 cells (Homo sapiens, UniProt P36544); test: Patch-clamp current recording (whole-cell voltage clamp), potentiation of the choline current and PAM type; format: cell-based; parameters: key: Type 0 compounds minimally enhance the effect size of the current elicited by 1 mM choline.; Type 1 compounds enhance the effect size of the current elicited by 1 mM choline but minimally alter the kinetics of the receptor.; Type 2 compounds enhance the effect size of the current elicited by 1 mM choline while reducing the rate and/or the extent of desensitization.; Type 3 compounds enhance the effect size of the current elicited by 1 mM choline. When tested at higher concentrations up to 10 μM they completely inhibit desensitization, in particular a 1 mM choline application of 250 milliseconds.; Type 4 compounds allow for an initial desensitization of the receptor followed by a re-opening of the receptor during agonist application; settings: 1 mM choline
T2 construct: expressed in transfected cells
T2 sequence (P36544 23-502): as above
Description: The compounds of the present invention are classified as type 1-4, based on qualitative kinetic properties, as determined by whole-cell voltage-clamp recordings. This classification is based on the effect of an α7 PAM compound, as described hereinbefore, on the signal elicited by an agonist application. In particular, said agonist is choline at a concentration of 1 mM. In a preferred experimental setting, said α7 PAM compound and choline are simultaneously applied to the cell, as described hereinafter. Desensitization is defined as the closure of the receptor upon activation during the application of the agonist in whole-cell voltage-clamp electrophysiology measurements seen as the reduction of the […] current after initial activation by the agonist.
The definition of the PAM types 1-4 is described hereinafter: • Type 0 compounds minimally enhance the effect size of the current elicited by 1 mM choline. • Type 1 compounds enhance the effect size of the current elicited by 1 mM choline but minimally alter the kinetics of the receptor. In particular, the rate and the extent of desensitization, elicited by the agonist, is not affected. The compound-modulated response to 1 mM choline, therefore, is a close to linear scaling of the 1 mM choline response in absence of the α7 PAM compound. • Type 2 compounds enhance the effect size of the current elicited by 1 mM choline while reducing the rate and/or the extent of desensitization. • Type 3 compounds enhance the effect size of the current elicited by 1 mM choline. […] At low-potency concentrations of the α7 PAM compound, the agonist-induced activation, which is followed by desensitization, can still be separated from the compound-induced re-opening as an initial inward current-maximum. At higher potency concentrations of the α7 PAM compound, the re-opening occurs faster than the closure due to desensitization so that the initial current-maximum disappears.
A compound was considered to have interesting PAM-like activity when the potentiation of the peak current was at least 200% compared to the control choline response (=100%). Such compounds are classified as belonging to a particular PAM type in the Experimental Part. Compounds not meeting the condition are not classified as belonging to a particular PAM-type.
The compounds also have a potentiating effect on the response to choline when measured by whole-cell patch clamp electrophysiology in GH4C1 cells stably over-expressing the human wild-type α7 receptor.
Patch-Clamp Current Recording
Patch-clamp recording from mammalian cells has provided a powerful means of assessing the function of membrane-bound proteins thought to be subunits of ligand-gated ion channels. Activation of such proteins by endogenous or exogenous ligands cause opening of a pore associated with the receptor through which ions flow down their electrochemical gradient. In the case of the hα7-wt nAChR-expressing GH4C1 recombinant cell line the preferential permeability to calcium of this receptor means that calcium flows into the cell upon activation by ACh, choline and other nicotinic ligands giving rise to a calcium current. Since this receptor rapidly desensitizes in the presence of agonist it is important an application system is used which is capable of very rapid switching of solutions (<100 ms) to prevent partial or full desensitisation of receptor responses coincident with the time of agonist application. Consequently, a second convenient technique to assess the enhancement of nicotinic efficacy is patch-clamp recording from hα7-wt nAChR-expressing GH4C1 cells coupled with a rapid-application system.
• The external recording solution consisted of 152 mM NaCl, 5 mM KCl, 1 mM MgCl2, 1 mM Calcium, 10 mM HEPES; pH 7.3. […]

| Compound | EC50 (hα7-wt nAChR) | Emax (hα7-wt nAChR) | PAM type [1] |
| --- | --- | --- | --- |
| CCNC(=O)Cn1nc(Nc2ccc(F)c(F)c2)cc1-c1cc(C)nc(C)c1 [compound 151] | 550 nM | 749% | 2 |
| Cc1cc(-c2cc(Nc3cccc(Cl)c3)nn2CC(=O)NC2CC2)ccn1 [compound 123] | 1000 nM | – | 2 |
| CCNC(=O)Cn1nc(Nc2cccc(C(F)(F)F)c2)cc1-c1cc(C)nc(C)c1 [compound 155] | 550 nM | 576% | 2 |
| CCNC(=O)Cn1nc(Nc2cccc(C(F)(F)F)c2)cc1-c1ccnc(C)c1 [compound 36] | 1910 nM | – | 2 |
| CNC(=O)Cn1nc(Nc2cccc(OC(F)(F)F)c2)cc1-c1ccc2c(c1)OCCO2 [compound 77] | 417 nM | – | 4 |
| COc1cccc(-c2cc(Nc3ccc(F)c(F)c3)nn2CCC(=O)N(C)C)c1 [compound 103] | 245 nM | – | 2 |
| CC[C@H](O)Cn1nc(Nc2cc(F)cc(F)c2)cc1-c1ccnc(COC)c1 [compound 71] | 1380 nM | 700% | 1 |
| Cc1cc(-c2cc(Nc3ccc4c(c3)OC(F)(F)O4)nn2CCC(=O)N(C)C)ccn1 [compound 94] | 240 nM | – | 2 |
| CNC(=O)Cn1nc(Nc2ccc3c(c2)OC(F)(F)O3)cc1-c1ccnc(C)c1 [compound 92] | 1860 nM | – | 2 |
| Cc1cc(-c2cc(Nc3cccc(Cl)c3F)nn2CCC(=O)N(C)C)ccn1 [compound 124] | 977 nM | – | 1 |
| CCNc1cc(-c2cc(Nc3ccc(F)c(F)c3)nn2C[C@@H](O)CC)ccn1 [compound 65] | 575 nM | 1000% | 2 |
| CCNC(=O)Cn1nc(Nc2ccc3c(c2)OC(F)(F)O3)cc1-c1ccnc(C)c1 [compound 93] | 1000 nM | – | 2 |
| CNC(=O)Cn1nc(Nc2ccc3c(c2)OC(F)(F)O3)cc1-c1cc(C)nc(C)c1 [compound 130] | 813 nM | 632% | 2 |
| CNC(=O)Cn1nc(Nc2cccc(Cl)c2F)cc1-c1ccnc(COC)c1 [compound 106] | 1950 nM | – | 2 |
| CCNC(=O)Cn1nc(Nc2ccc(F)c(C(F)(F)F)c2)cc1-c1ccnc(C)c1 [compound 38] | 575 nM | – | 2 |
| COc1cc(Cl)cc(Nc2cc(-c3ccnc(C)c3)n(CC(=O)NC3CC3)n2)c1 [compound 110] | 1780 nM | – | 2 |
| Cc1ccnc(-c2cc(Nc3ccc(F)c(C(F)(F)F)c3)nn2CCC(=O)N(C)C)c1 [compound 23] | 631 nM | – | 2 |
| CCNc1cc(-c2cc(Nc3ccc(F)c(F)c3)nn2C[C@H](C)O)ccn1 [compound 62] | 1320 nM | – | 1 |
